Results published in ChEMBL document CHEMBL1201862, “PubChem BioAssay data set” (2004).
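Where inhibition never reached the appropriate level, the endpoint shown equals the highest concentration tested. Otherwise, values were interpolated linearly from a five-concentration, 48-hour dose response in 96-well plates. Here, GI50 denotes the concentration required for 50% inhibition of growth.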 Activity calls are given as the source filed them. No stated cut-off is given here; in the data, active = GI50 up to about 1.1 µM and inactive = higher.

What was measured:
Assay in all cases: inhibition of tumour cell growth, NCI panel, 48 h
HT-29 = test system: HT-29
SF-268 = test system: SF-268
NCI-H460 = test system: NCI-H460
OVCAR-3 = test system: OVCAR-3
SF-295 = test system: SF-295
LOX IMVI = test system: LOX IMVI
NCI-H522 = test system: NCI-H522
HCT-116 = test system: HCT-116
HCC 2998 = test system: HCC 2998
UACC-257 = test system: UACC-257
SNB-78 = test system: SNB-78
NCI-H226 = test system: NCI-H226
SK-MEL-5 = test system: SK-MEL-5
HCT-15 = test system: HCT-15
A498 = test system: A498

| SMILES | GI50 (HT-29) | GI50 (SF-268) | GI50 (NCI-H460) | GI50 (OVCAR-3) | GI50 (SF-295) | GI50 (LOX IMVI) | GI50 (NCI-H522) | GI50 (HCT-116) | GI50 (HCC 2998) | GI50 (UACC-257) | GI50 (SNB-78) | GI50 (NCI-H226) | GI50 (SK-MEL-5) | GI50 (HCT-15) [µM] | GI50 (A498) |
| --- | --- | --- | --- | --- | --- | --- | --- | --- | --- | --- | --- | --- | --- | --- | --- |
| COc1ccc(-c2cc(O)c3cc(Cl)ccc3n2)cc1 | > 100 µM (inactive) | > 100 µM (inactive) | > 100 µM (inactive) | > 100 µM (inactive) | > 100 µM (inactive) | > 100 µM (inactive) | > 100 µM (inactive) | > 100 µM (inactive) | > 100 µM (inactive) | > 100 µM (inactive) | > 100 µM (inactive) | > 100 µM (inactive) | > 100 µM (inactive) | – | – |
| COC(=O)C1=C(C[S+]([O-])c2ccccc2[N+](=O)[O-])ON(C)C1c1ccccc1 (centres undefined) | 32.1 µM (inactive) | 27.5 µM (inactive) | > 100 µM (inactive) | 40.5 µM (inactive) | 65.8 µM (inactive) | 13.3 µM (inactive) | 18.4 µM (inactive) | 25.5 µM (inactive) | 15.8 µM (inactive) | 35.2 µM (inactive) | 82 µM (inactive) | 37.8 µM (inactive) | 38.8 µM (inactive) | 22.5 | > 100 µM (inactive) |
| COc1ccc(-c2ccccc2)c(N/N=C2\CCCNC2=O)c1 | > 100 µM (inactive) | 43.5 µM (inactive) | > 100 µM (inactive) | > 100 µM (inactive) | > 100 µM (inactive) | > 100 µM (inactive) | > 100 µM (inactive) | 13.1 µM (inactive) | > 100 µM (inactive) | > 100 µM (inactive) | 93.5 µM (inactive) | > 100 µM (inactive) | 28.2 µM (inactive) | > 100 | – |
| O=C(CCc1nnc2s/c(=C\c3ccccc3Cl)c(=O)n12)Nc1cc(Cl)ccc1Cl | > 100 µM (inactive) | > 100 µM (inactive) | > 100 µM (inactive) | > 100 µM (inactive) | > 100 µM (inactive) | > 100 µM (inactive) | > 100 µM (inactive) | > 100 µM (inactive) | > 100 µM (inactive) | > 100 µM (inactive) | > 100 µM (inactive) | > 100 µM (inactive) | > 100 µM (inactive) | > 100 | – |
| C[n+]1c2ccccc2c(NC(CCCNC(=N)N)C(=O)O)c2ccccc21 (centres undefined) | > 100 µM (inactive) | > 100 µM (inactive) | > 100 µM (inactive) | > 100 µM (inactive) | > 100 µM (inactive) | – | 99.1 µM (inactive) | > 100 µM (inactive) | > 100 µM (inactive) | > 100 µM (inactive) | > 100 µM (inactive) | > 100 µM (inactive) | 85.9 µM (inactive) | > 100 | > 100 µM (inactive) |
| [O-]/N=[N+](/[O-])C1CCCCC1=[N+]1CCOCC1 (centres undefined) | > 100 µM (inactive) | > 100 µM (inactive) | > 100 µM (inactive) | > 100 µM (inactive) | > 100 µM (inactive) | – | > 100 µM (inactive) | > 100 µM (inactive) | – | > 100 µM (inactive) | > 100 µM (inactive) | > 100 µM (inactive) | – | – | > 100 µM (inactive) |
| COC(=O)/C(C=O)=C/Sc1ccccc1 | 25.5 µM (inactive) | 11 µM (inactive) | 32.1 µM (inactive) | 21.3 µM (inactive) | 30.1 µM (inactive) | 8.65 µM (inactive) | 11.7 µM (inactive) | 22.5 µM (inactive) | 37.8 µM (inactive) | 29.8 µM (inactive) | 26.5 µM (inactive) | 15.8 µM (inactive) | 14.2 µM (inactive) | 22.6 | – |
| CC(C)OP(=O)(OC(C)C)/C(=N/Nc1ccc([N+](=O)[O-])cc1)NN | – | > 100 µM (inactive) | > 100 µM (inactive) | > 100 µM (inactive) | – | > 100 µM (inactive) | 47.8 µM (inactive) | > 100 µM (inactive) | > 100 µM (inactive) | 24.9 µM (inactive) | > 100 µM (inactive) | 0.592 µM (active) | 35.7 µM (inactive) | > 100 | > 100 µM (inactive) |
| O=C1C(Cl)=C(Cl)C(=O)N1C1C2CC3CC(C2)CC1C3 (centres undefined) | > 100 µM (inactive) | > 100 µM (inactive) | > 100 µM (inactive) | – | > 100 µM (inactive) | > 100 µM (inactive) | 27.9 µM (inactive) | > 100 µM (inactive) | > 100 µM (inactive) | > 100 µM (inactive) | > 100 µM (inactive) | > 100 µM (inactive) | > 100 µM (inactive) | > 100 | > 100 µM (inactive) |
| CC1=NOC(=O)/C1=C/c1ccc([N+](=O)[O-])cc1 | > 100 µM (inactive) | > 100 µM (inactive) | > 100 µM (inactive) | > 100 µM (inactive) | > 100 µM (inactive) | > 100 µM (inactive) | > 100 µM (inactive) | > 100 µM (inactive) | > 100 µM (inactive) | > 100 µM (inactive) | > 100 µM (inactive) | > 100 µM (inactive) | > 100 µM (inactive) | > 100 | > 100 µM (inactive) |
| CC(C)(C)/N=C/N1C=Cc2nc3ccccc3cc2C1 | > 100 µM (inactive) | > 100 µM (inactive) | 32.6 µM (inactive) | > 100 µM (inactive) | > 100 µM (inactive) | 26.7 µM (inactive) | > 100 µM (inactive) | > 100 µM (inactive) | > 100 µM (inactive) | > 100 µM (inactive) | > 100 µM (inactive) | – | > 100 µM (inactive) | 57.1 | > 100 µM (inactive) |
| CN1CCc2cc(O)c3cc2C1Cc1ccc(cc1)Oc1cc(ccc1O)CC1c2c(cc4c(c2O3)OCO4)CCN1C (centres undefined) | 21.2 µM (inactive) | 33.1 µM (inactive) | 46.2 µM (inactive) | 75 µM (inactive) | 21.5 µM (inactive) | – | – | 36.6 µM (inactive) | 19.5 µM (inactive) | – | > 100 µM (inactive) | 22.9 µM (inactive) | 18.9 µM (inactive) | 22.5 | – |
| O=c1cc(-c2ccc(Cl)cc2)oc2cc(OCCCOc3ccc4c(=O)cc(-c5ccc(Cl)cc5)oc4c3)ccc12 | > 100 µM (inactive) | > 100 µM (inactive) | > 100 µM (inactive) | > 100 µM (inactive) | > 100 µM (inactive) | > 100 µM (inactive) | > 100 µM (inactive) | > 100 µM (inactive) | > 100 µM (inactive) | > 100 µM (inactive) | > 100 µM (inactive) | > 100 µM (inactive) | > 100 µM (inactive) | > 100 | – |
| O=C(CC1(O)C(=O)Nc2ccc(Br)cc21)c1cccc([N+](=O)[O-])c1 (centres undefined) | 32.7 µM (inactive) | 39 µM (inactive) | > 100 µM (inactive) | 38.7 µM (inactive) | 59 µM (inactive) | 32.4 µM (inactive) | 22.2 µM (inactive) | – | 65 µM (inactive) | 27.9 µM (inactive) | 37.8 µM (inactive) | 26.9 µM (inactive) | > 10 µM (inactive) | 56 | – |
| O=C1NC2CCC(C2)C1c1ccccc1 (centres undefined) | > 100 µM (inactive) | > 100 µM (inactive) | > 100 µM (inactive) | > 100 µM (inactive) | > 100 µM (inactive) | > 100 µM (inactive) | – | – | > 100 µM (inactive) | – | > 100 µM (inactive) | > 100 µM (inactive) | > 100 µM (inactive) | – | > 100 µM (inactive) |
| CC1=C(O)C(=O)c2cn(C)cc2C1=O | > 100 µM (inactive) | > 100 µM (inactive) | > 100 µM (inactive) | > 100 µM (inactive) | > 100 µM (inactive) | > 100 µM (inactive) | – | > 100 µM (inactive) | > 100 µM (inactive) | > 100 µM (inactive) | > 100 µM (inactive) | > 100 µM (inactive) | > 100 µM (inactive) | > 100 | > 100 µM (inactive) |
| O=c1ccc(=O)c2c(=O)c3ccccc3c(=O)c1=2 | – | 35.6 µM (inactive) | 29.3 µM (inactive) | 21.2 µM (inactive) | 34.4 µM (inactive) | 42.6 µM (inactive) | 29.8 µM (inactive) | 20.7 µM (inactive) | 54.7 µM (inactive) | 30.8 µM (inactive) | 60.5 µM (inactive) | – | 15.7 µM (inactive) | 46.2 | > 100 µM (inactive) |
| O=C(O)C1c2ccccc2C(C(=O)O)c2ccccc21 (centres undefined) | > 100 µM (inactive) | > 100 µM (inactive) | > 100 µM (inactive) | – | > 100 µM (inactive) | > 100 µM (inactive) | > 100 µM (inactive) | > 100 µM (inactive) | > 100 µM (inactive) | > 100 µM (inactive) | > 100 µM (inactive) | – | > 100 µM (inactive) | > 100 | > 100 µM (inactive) |
| CNc1ccc2ncccc2c1[N+](=O)[O-] | > 100 µM (inactive) | > 100 µM (inactive) | > 100 µM (inactive) | > 100 µM (inactive) | > 100 µM (inactive) | > 100 µM (inactive) | – | > 100 µM (inactive) | > 100 µM (inactive) | > 100 µM (inactive) | > 100 µM (inactive) | > 100 µM (inactive) | > 100 µM (inactive) | > 100 | > 100 µM (inactive) |
| O=C1C2C3C=CC(C2C(=O)N1CO)C1C2C(=O)N(CO)C(=O)C2C31 (centres undefined) | 92.5 µM (inactive) | > 50.4 µM (inactive) | 27.9 µM (inactive) | > 92.9 µM (inactive) | > 100 µM (inactive) | > 45 µM (inactive) | > 100 µM (inactive) | > 44.5 µM (inactive) | > 100 µM (inactive) | > 100 µM (inactive) | > 100 µM (inactive) | > 100 µM (inactive) | > 83 µM (inactive) | 37 | > 100 µM (inactive) |
